Measured values published in patent publication US12100151B2, “Droplet imaging pipeline” (Xilis, Inc., priority 2022, dated 2024).
“Also recorded” adds a separate entry of the source.

Legend:
[1] = system: sarcoma cancer MOS; assay: CTG luminescent cell viability assay on sarcoma cancer MOS; type: cell-based; conditions: sarcoma MOS treated on Day 7 after establishment; FIG. 5F top panel
Description: To measure cell viability, we used the CTG luminescent cell viability assay. CellTiter-Glo 3-D reagent (Promega, catalog no. G9681) was added in a 1:1 ratio with the initial well volume ([…], of CTG reagent 96-well plates and 384-well plates, respectively). The plates were placed on a shaker for 30 min. We measured luminescence by using a plate reader for each well.
Cell viability was assessed using both metabolic and imaging parameters. For the metabolic assay, Day 0 brightfield images were used to normalize CTG measurements for each well. Total surface areas (tSA) outputted from the machine learning model were used for normalizing the plating variations. The measured CTG value of each well was then divided by these surface area ratios to determine the adjusted CTG values. These adjusted CTG values were used to generate drug response curves, e.g., viability curves for each drug condition.
(§1) The imaging-based MOS drug assay allowed further delineating MOS 3D structures from individual stromal cells by overcoming fundamental limits of bulk assays, e.g., cell number, well-to-well variation, heterogeneity, and signal-to-noise ratio.

[2] = system: sarcoma cancer MOS; assay: live/dead cell dye imaging assay on sarcoma cancer MOS; type: cell-based; conditions: sarcoma MOS treated on Day 7 after establishment; FIG. 5F bottom panel
Excerpt: as §1

[3] = system: CRC #5; conditions: CRC #5 model; for sizes of CRC #5 MOS: FIG. 5A top panel; for drug response curve by median CAM/EtH dye ratios as compared to CTG based assay: FIG. 5C; for cytostatic vs. cytotoxic drug effect: from size, CAM/EtH ratio and CTG
Description: (§2) The plates were scanned using the Celigo imaging cytometer and its software. We collected the brightfield images on the day (day 0) of the drug treatment and on the day right before performing the CellTiter-Glo (CTG) assay. Upon inserting the plate, images were set to be acquired on brightfield, green, and red fluorescence channels. The brightfield channel was used to focus the device and ensure the MOS boundaries were crisp. The green (live cell) fluorescence channel exposure time was then adjusted to ensure pixel intensity was below 200 across the control triplicate wells to avoid overexposure. This process was repeated for the red (dead cell) fluorescence channel in the positive control, killing condition triplicate wells. After scanning the plate, the stitched images of each well were exported in tiff format for the downstream imaging analysis.
(§3) We performed the live and dead cell staining on the same day prior to the CTG assay. For 96 well plates, a working dye solution of 20 μM Ethidium Homodimer-2 (Thermo Fisher, Cat. No. E3599) and 5 μM Calcein AM (Thermo Fisher, catalog No. C3100MP) was prepared by adding 1 mM Calcein AM, 1 mM Ethidium Homodimer-2, and CRC media in a 1:8:191 ratio. For 384-well plates, the working dye solution of 10 μM Ethidium Homodimer-2 and 2.5 μM Calcein AM was prepared by adding 1 mM Calcein AM, 1 mM Ethidium Homodimer-2, and colorectal cancer (CRC) media in a 1:8:391 ratio. After the solution was prepared, 11 μL and 10 μL of dye solution were added to each well on the 96-well and 384-wells plates, respectively, to yield a final well concentration of 2 μM Ethidium Homodimer-2 and 0.5 μM Calcein AM. The plates were then incubated for 45 min at 37° C.
(§4) Therefore, in studies involving the ratio of live-cell stain to dead-cell stain, we increased the predicted object mask to capture all the dead-stain fluorescence signal. The size increase was performed using one iteration of the dilate algorithm in OpenCV with a kernel size of 10×10. Any other MOSs detected by the machine learning model that overlap with this expanded region were removed before the integrated fluorescence was computed.
For the live and dead cell dyes-based imaging assay, the integrated live cell dye (Calcein AM) and dead cell dye (Eth) signals for each segmented object were determined. To assess drug response at individual MOS level, the integrated intensities, or the ratios of Calcein AM/EtH, were shown on the scatter plot or histogram. The correlation of dose-dependent drug response with the median ratios of the integrated live/dead cell dye intensities from each well were computed and plotted.
(§5) To further increase the resolution and power of MOS drug assay pipeline, we developed an orthogonal approach by spiking a combination of live-cell (Calcein AM, CAM) and dead-cell (Ethidium Homodimer II, EtH) dyes (FIG. 5A; scale bar of 200 μm) into the drug assay plates prior to performing the CTG assay. We were able to quantitatively measure the integrated intensities of the CAM and EtH dyes in addition to MOS sizes.

[4] = system: CRC #6; assay: imaging-based MOS drug assay (MOS size, live/dead CAM/EtH dyes) on CRC #6; type: cell-based; conditions: CRC #6 model
Description: as §2, §3, §4
For the live and dead cell dyes-based imaging assay, the integrated live cell dye (Calcein AM) and dead cell dye (Eth) signals for each segmented object were determined. […]
as §5

Row | SMILES | bulk CTG readouts (raw CTG or adjusted CTG) drug response curves [1] | drug response by median values of live/dead cell ratios [2] | sizes of CRC #5 MOS [3] | drug response curve by median CAM/EtH dye ratios as compared to CTG based assay [3] | cytostatic vs. cytotoxic drug effect [3] | sensitivity of the model to the drug [4] | sizes of CRC #6 MOS [4] | ratios of CAM/EtH dye integrated intensities ([3]; live-cell Calcein AM / dead-cell Ethidium Homodimer II) | drug resistant clones identified ([4]; FIG. 5A and FIG. 5D) | drug response curve by median CAM/EtH dye ratios as compared to CTG based assay ([4]; FIG. 5C)
1 | CC(=O)O[C@@]12CO[C@@H]1C[C@H](O)[C@@]1(C)C(=O)[C@H](O)C3=C(C)[C@@H](OC(=O)[C@H](O)[C@@H](NC(=O)OC(C)(C)C)c4ccccc4)C[C@@](O)([C@@H](OC(=O)c4ccccc4)[C@H]21)C3(C)C [Docetaxel] | not able to provide any meaningful dose-dependent drug response curves | clear dose-dependent drug response |  |  |  |  |  |  |  | 
2 | C#Cc1cccc(Nc2ncnc3cc(OCCOC)c(OCCOC)cc23)c1 [Erlotinib] |  |  | decreased | divergence between CTG plot and CAM/EtH ratio plot | cytostatic effect; also recorded: cytostatic but not the cytotoxic effect | resistant to EGFR inhibition | no obvious decrease |  |  | 
3 | Nc1ccn([C@@H]2O[C@H](CO)[C@@H](O)C2(F)F)c(=O)n1 [Gemcitabine] | not able to provide any meaningful dose-dependent drug response curves | less sensitive response |  |  |  |  |  |  |  | 
4 | CCc1c2c(nc3ccc(O)cc13)-c1cc3c(c(=O)n1C2)COC(=O)[C@]3(O)CC [SN38] |  |  | decreased | comparable dose-dependent drug responses | cytotoxic effect |  |  | only decreased in the wells treated with SN38 | identified the drug resistant clones | comparable dose-dependent drug responses
